Entries after “also recorded” stand apart in the source; their conditions may differ.
Tests used:
mouse Notch1-ΔE = conditions: Notch IC50 / Aβ40 IC50, 95% CI=163-232
Protocol: Since inhibition of Notch signaling causes undesired, mechanism-based side effects, a cellular assay for Notch1-ΔE signaling was used to counterscreen γ-secretase inhibitors.
Hela cells were maintained in DMEM (GibcoBRL) containing 10% FBS (GibcoBRL), Penicillin/Streptomycin (GibcoBRL) and 2 mM L-glutamine (GibcoBRL). Cells were transiently transfected using TransIT-HelaMONSTER (Mires) according to the manufacturer's directions. Hela cells (ATCC) were plated 16 hours before transfection at a density of 4×10^6 cells per T175 flask in Hela growth media (DMEM (high glucose with HEPES) with glutamine, penicillin, streptomycin and 10% fetal bovine serum). […] Cells were plated into 96 well black Clearview plates (Packard) at a volume of 200 μL/well (1×10^4 cells) and incubated at 37° C. for 1.5 hours to allow cells to adhere to the plates. Test compounds were initially diluted in a 96 well polypropylene plate in 100% DMSO. […] Diluted compound solutions (10 μL) were added to the cell plate yielding a final 0.1% DMSO concentration. Cell plates containing compound were incubated overnight at 37° C. […] The plate was incubated at room temperature for 10 minutes before black backing was attached to the bottom of the plate and the signal was read on a TopCount (Packard). […]

[1] = system: γ-secretase inhibitor binding sites in the brain; test: Gamma-secretase site occupancy in rat brain; assay type: in vivo; conditions: single dose 1 mg/kg, by 24 hours
Protocol: (§1) Female Harlan Sprague-Dawley rats (˜200-250 g) were dosed daily by oral gavage with a dosing vehicle of 99% PEG-400, 1% Tween-80 at 4 mL/kg in the morning. […] Plasma was obtained after centrifugation. […] CSF samples were centrifuged to remove cells or debris prior to dilution at 1:2 in 4% BSA and frozen for subsequent analysis.
Brain sections were cut coronally at a thickness of 20 μm on a cryostat and thaw-mounted onto Superfrost Plus slides. Sections were saved at the level of the rostral hippocampus, with 3 sections per slide at intervals of about 120 μm, and frozen at −20° C. until use. For occupancy studies, brain sections were warmed to room temperature, dried, incubated for 10 minutes in 50 mM HEPES buffer, pH 7.4, then transferred to the same buffer containing 1.5 nM [^3H]IN973 (Goldstein, M. E. et al., J. Pharmacol. Exp. Ther. (2007) 323:102-108) or [^3H] (R)-4-((N-(1-amino-4-methyl-1-oxopentan-2-yl)-4-chlorophenylsulfonamido)methyl)-N-(2-methoxyethyl)benzamide and incubated at room temperature for 10 minutes. To define nonspecific binding, adjacent sections were incubated in buffer containing [^3H]IN973 or [^3H] […] Optical densities (expressed as digital light units per square millimeter) over areas of interest were measured and expressed as a percent of vehicle control.

[2] = female, Sprague-Dawley, rat, in vivo
Protocol: Animals were euthanized 12 or 24 hours after the third dose or 5 hours after the fourth dose.

[3] = molecular target: T1, human pregnane-X receptor (Homo sapiens, UniProt O75469); test: PXR transactivation assay; assay type: cell-based; conditions: hPXR transactivation, transfected HepG2 cells
T1 construct: expressed in transfected cells; host or cells: HepG2 cells (ATCC), transient transfection with Lipofectamine 2000
T1 sequence (O75469 1-434): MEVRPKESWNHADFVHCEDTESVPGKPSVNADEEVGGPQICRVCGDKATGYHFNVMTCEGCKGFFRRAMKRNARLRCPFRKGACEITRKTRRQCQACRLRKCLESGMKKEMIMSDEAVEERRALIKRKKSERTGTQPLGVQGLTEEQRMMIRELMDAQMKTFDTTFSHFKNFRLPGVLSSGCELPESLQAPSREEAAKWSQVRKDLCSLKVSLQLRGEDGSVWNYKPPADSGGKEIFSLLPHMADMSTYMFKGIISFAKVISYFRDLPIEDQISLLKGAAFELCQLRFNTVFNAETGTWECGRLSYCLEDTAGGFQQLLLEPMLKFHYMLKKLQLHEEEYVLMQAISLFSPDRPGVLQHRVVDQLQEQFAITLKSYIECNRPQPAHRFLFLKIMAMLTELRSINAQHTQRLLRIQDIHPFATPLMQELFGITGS
From the text: Pregnane X receptor (PXR) is a nuclear hormone receptor principally responsible for the induction of cytochrome P450 (CYP) 3A4, which plays a major role in metabolizing many clinically prescribed drugs. It is well known that the induction of CYP3A4 can cause either drug-drug interaction by increasing the metabolic clearance of co-administered CYP3A4 substrates (Bertilsson, G. et al., Proc. Nat. Acad. Sci. USA (1998) 95: 12208-12213; Lehmann, J. M. et al., J. Clin. Invest. (1998) 102: 1016-1023) or can cause loss of drug exposure due to autoinduction. Characterizing the induction potential of discovery or development drug candidates has become an important screen throughout the pharmaceutical industry. A PXR transactivation assay is used to assess the induction potential of CYP3A4, and a cytotoxicity assay of HepG2 cells is used to monitor the assay interference due to cytotoxicity.
Cell culture medium used is DMEM. Lipofectamine 2000, PBS, trypsin-EDTA (0.25%), and penicillin-streptomycin were purchased from GIBCO/Invitrogen (Carlsbad, Calif.). […]
Cells in each flask are washed with PBS and 4 mL of Trypsin-EDTA (0.25%) is added and incubated for one minute at room temperature. […] Cells are then counted and diluted in media to 3.0×10^5 cells/mL. […] After fifteen minutes, plates are read on a Viewlux (Perkin-Elmer) plate reader. […]

CYP3A4 mRNA = conditions: human, 3 days, 20 μM
Protocol: Fa2N-4 cells and MFE Support Media F were provided by XenoTech, LLC (Lenexa, Kans.).
Fa2N-4 cells were supplied on 12-well, collagen-coated plates at a seeding density of 0.67×10^6 cells per well. Upon the receipt of the cells, the media were changed and the cells maintained overnight in a humidified, CO2-supplied incubator. After this adaptation period, the cells were examined under a light microscope and a determination was made as to whether the cells were morphologically normal and suitable for use. During the treatment period, the cells were visually inspected on a daily basis; cellular morphology, confluency, and signs of toxicity due to the test article were documented as necessary. […] Fa2N-4 cells were exposed to the test articles for a total of 3 days. The culture medium was replaced daily with fresh medium containing the test articles. After a total of ˜72 hours of exposure, medium was aspirated and the cells washed once with warm phosphate buffered saline solution before adding the cell lysis buffer (Qiagen, Valencia, Calif.).

brain Aβ40 = test: Rat brain Abeta40 assay (252-TSD ELISA); conditions: for Terminal Brain Abeta 40 5 hr: 5 hr after fourth dose; for Terminal Brain Abeta 40 12 hr: 12 hr after third dose; for Terminal Brain Abeta 40 24 hr: 24 hr after third dose
proximal duodenum = test: Rat duodenum histopathology (GI toxicity); assay type: in vivo; conditions: 100 mg/kg/day once daily for 4 days
Protocol: as §1
Following euthanasia by CO2 asphyxiation, approximately 3 cm long sections of the proximal duodenum were removed from the abdomen, rinsed with ice cold Phosphate buffered saline and placed into 10% buffered formalin prior to sectioning. Tissue sections of the duodenum were embedded in liquid paraffin, mounted onto blocks, and cut into triplicate sagittal (cross-luminal) ring sections and stained using the Periodic acid Schiff's base method prior to microscopic evaluation. All animals survived until scheduled necropsy was performed.

Structure (SMILES): NC(=O)[C@@H](CCC(F)(F)F)N(Cc1ccc(-c2ncon2)cc1F)S(=O)(=O)c1ccc(Cl)cc1 [(2R)-2-[[(4-chlorophenyl)sulfonyl][[2-fluoro-4-(1,2,4-oxadiazol-3-yl)phenyl]methyl]amino]-5,5,5-trifluoropentanamide]
- Notch/APP selectivity (mouse Notch1-ΔE): 193 X
- brain γ-secretase site occupancy [1]: gradually returned to baseline values
- compound exposures after 3 doses relative to exposures after the initial dose [2]: ≤ 2 fold
- EC20A (20% of the Rifampicin response at 10 μM) [3]: 6.9 µM
- EC60A (60% of the Rifampicin response at 10 μM) [3]: greater than 16.7 μM
- induction as % of the induction response caused by rifampicin (CYP3A4 mRNA): 22%
- Terminal Brain Abeta 40 5 hr (brain Aβ40; Study No. 1, 3 mg/kg/day): 39% Veh
- Terminal Brain Abeta 40 12 hr (brain Aβ40; Study No. 1, 3 mg/kg/day): 35% Veh
- Terminal Brain Abeta 40 24 hr (brain Aβ40; Study No. 1, 3 mg/kg/day): 92% Veh
- Terminal Brain Abeta 40 5 hr (brain Aβ40; Study No. 1, 10 mg/kg/day): 12% Veh
- Terminal Brain Abeta 40 12 hr (brain Aβ40; Study No. 1, 10 mg/kg/day): 9% Veh
- Terminal Brain Abeta 40 24 hr (brain Aβ40; Study No. 1, 10 mg/kg/day): 28% Veh
- Terminal Brain Abeta 40 5 hr (brain Aβ40; Study No. 1, 30 mg/kg/day): 8% Veh
- Terminal Brain Abeta 40 12 hr (brain Aβ40; Study No. 1, 30 mg/kg/day): 9% Veh
- Terminal Brain Abeta 40 24 hr (brain Aβ40; Study No. 1, 30 mg/kg/day): 13% Veh
- Terminal Brain Abeta 40 5 hr (brain Aβ40; Study No. 2, 3 mg/kg/day): 16% Veh
- Terminal Brain Abeta 40 12 hr (brain Aβ40; Study No. 2, 3 mg/kg/day): 34% Veh
- Terminal Brain Abeta 40 24 hr (brain Aβ40; Study No. 2, 3 mg/kg/day): 94% Veh
- Terminal Brain Abeta 40 5 hr (brain Aβ40; Study No. 2, 10 mg/kg/day): 6% Veh
- Terminal Brain Abeta 40 12 hr (brain Aβ40; Study No. 2, 10 mg/kg/day): 4% Veh
- Terminal Brain Abeta 40 24 hr (brain Aβ40; Study No. 2, 10 mg/kg/day): 23% Veh
- Terminal Brain Abeta 40 5 hr (brain Aβ40; Study No. 2, 30 mg/kg/day): 6% Veh
- Terminal Brain Abeta 40 12 hr (brain Aβ40; Study No. 2, 30 mg/kg/day): 4% Veh
- Terminal Brain Abeta 40 24 hr (brain Aβ40; Study No. 2, 30 mg/kg/day): 15% Veh
- Terminal Brain Abeta 40 5 hr (brain Aβ40; Study No. 2, 100 mg/kg/day): 3% Veh
- Terminal Brain Abeta 40 12 hr (brain Aβ40; Study No. 2, 100 mg/kg/day): 3% Veh
- Terminal Brain Abeta 40 24 hr (brain Aβ40; Study No. 2, 100 mg/kg/day): 7% Veh
- Day 7 5 hr Brain Aβ40 (brain Aβ40; Study No. 3, 30 mg/kg/day): 13% Veh
- Day 7 5 hr Brain Aβ40 (brain Aβ40; Study No. 3, 300 mg/kg/day): 13% Veh
- histological evaluation of duodenal tissue (proximal duodenum): ⅓ rats dosed with 100 mg/kg/day had mild lesions; also recorded: slight goblet cell metaplasia

— patent US8350084B2, “Alpha-(N-sulfonamido)acetamide compound as an inhibitor of beta amyloid peptide production” (priority 2007, dated 2013)
